Source: patent US20100022584A1, “Modulation of Glutamine Synthetase Activity” (priority 2006, published 2010)
Changes are numbered by the printed parent chain.

How the values were obtained:
Assay in all cases: HPLC forward-reaction glutamine synthetase assay with serine protease inhibitors
Type in all cases: biochemical, E. coli
[1] = target: T1, glutamine synthetase mutant S52A (Escherichia coli, UniProt P0A9C5, S53A); details: 1 mM inhibitor; for inhibition of the enzyme (in words): HPLC assays; for % Reduction in ADP-based Specific Activity / % Reduction in Glutamine-based Specific Activity: 60 min pre-incubation, vs no-inhibitor control, positive = activity increased; for % Conversion: glutamine-based divided by ADP-based specific activity
T1 construct: made in house; host or cells: E. coli YMC11 (glutamine synthetase auxotroph), pBluescript II SK+
T1 sequence (P0A9C5 2-469 S53A limits assumed): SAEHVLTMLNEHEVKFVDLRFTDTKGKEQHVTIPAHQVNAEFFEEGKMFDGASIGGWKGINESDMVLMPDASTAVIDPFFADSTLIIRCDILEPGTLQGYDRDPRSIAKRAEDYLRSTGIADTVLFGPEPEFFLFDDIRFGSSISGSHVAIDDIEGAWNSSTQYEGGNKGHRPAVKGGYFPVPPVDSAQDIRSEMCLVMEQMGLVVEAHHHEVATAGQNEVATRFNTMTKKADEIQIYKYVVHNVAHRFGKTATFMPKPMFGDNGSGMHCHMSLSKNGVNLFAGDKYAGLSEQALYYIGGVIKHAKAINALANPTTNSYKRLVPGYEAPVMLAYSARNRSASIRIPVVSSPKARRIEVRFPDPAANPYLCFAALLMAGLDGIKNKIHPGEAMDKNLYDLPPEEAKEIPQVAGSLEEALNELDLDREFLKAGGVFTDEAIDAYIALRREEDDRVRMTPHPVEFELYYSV
Protocol: (§1) This assay was set up to measure glutamine synthetase activity according to the forward reaction, and measures the amount of glutamine formed from […] of L-glutamate in the presence of MnCO3-ATP (the basis of one reaction) and MgATP (the basis of a second reaction). In addition, the amount of ADP formed is also measured in a separate assay, using the same reagents.
(§2) All enzyme preparations were adjusted to the same concentration of protein, and added to the assay mixture in a volume of 50 μl. The addition of the enzyme started the reaction, which was then allowed to proceed for 1 hour. The reaction was stopped by the addition of 6 μl of a 50% solution of trichloroacetic acid. Each assay was then aliquoted into 4 HPLC vials (150 μl per vial), two of which were assayed for glutamate and glutamine using a Phenomenex Luna 5 μC18 Column on an Agilent 100 HPLC instrument. The ATP/ADP assays were run on a Chromolith Performance RP-18c column also using an Agilent 100 HPLC instrument.
(§3) As it is believed that two putative catalytic triads, similar to those in the serine proteases, are involved in the reaction mechanism of glutamine synthetase, certain of the mutants were also assayed by HPLC in the presence of the serine protease inhibitors, AEBSF and PMSF, in order to assess the effect that these inhibitors had on the enzyme. The enzymes assessed were the adenylylated WT enzyme, the deadenylylated WT enzyme, and the mutant enzymes S52A, S52A Y397V, S53A, S53A Y397V, S52A S53A and S52A S53A Y397V. The enzymes were pre-incubated for 60 minutes in the presence of 1 mM PMSF or 1 mM AEBSF. A control reaction was set up for each enzyme, which contained no inhibitor. Each enzyme was then added to assays set up as described above. The assay was allowed to proceed for 60 minutes, then stopped by the addition of […] of 50% TCA, after which they were analysed by HPLC. All assays were run in triplicate.
(§4) In addition to the γ-glutamyl transferase assays, assays were also developed to measure the rate of conversion of ATP and glutamate to ADP and glutamine by HPLC. These were set up as single assays but analysed separately for glutamate and glutamine and ATP and ADP. The conversion rates for glutamate to glutamine, in both the presence of Mn^2+ and Mg^2+ by glutamine synthetase, is referred to as the […] specific activity and is presented in μmoles/min/mg protein. The conversion rates for ATP to ADP, in both the presence of Mn^2+ and Mg^2+ by glutamine synthetase, is referred to as the ADP-based specific activity and is presented in μmoles/min/mg protein. The percentage of conversion was also calculated by dividing the glutamine-based specific activity by the ADP-based specific activity, and this value is interpreted as the ability of the enzyme to complete both steps of the reaction, i.e., glutamate to glutamine and ATP to ADP, at an equivalent level of efficiency.

[2] = target: T2, glutamine synthetase mutant S52A Y397V (Escherichia coli, UniProt P0A9C5, S53A/Y398V); details: 1 mM inhibitor; for inhibition of the enzyme (in words): HPLC assays; for % Conversion: glutamine-based divided by ADP-based specific activity
T2 construct: made in house; host or cells: E. coli YMC11 (glutamine synthetase auxotroph), pBluescript II SK+
T2 sequence (P0A9C5 2-469 S53A/Y398V limits assumed): T1 sequence (P0A9C5 2-469 S53A limits assumed) with Y397V
Protocol: as §1, §2, §3, §4

[3] = target: T3, glutamine synthetase mutant S53A (Escherichia coli, UniProt P0A9C5, S54A); details: 1 mM inhibitor; for inhibition of the enzyme (in words): HPLC assays; for % Reduction in ADP-based Specific Activity / % Reduction in Glutamine-based Specific Activity: 60 min pre-incubation, vs no-inhibitor control, positive = activity increased; for % Conversion: glutamine-based divided by ADP-based specific activity
T3 construct: made in house; host or cells: E. coli YMC11 (glutamine synthetase auxotroph), pBluescript II SK+
T3 sequence (P0A9C5 2-469 S54A limits assumed): T1 sequence (P0A9C5 2-469 S53A limits assumed) with A52S, S53A
Protocol: as §1, §2, §3, §4

SMILES | inhibition of the enzyme (in words) [1] | % Reduction in ADP-based Specific Activity ([1]; Mg assay) [%] | % Reduction in Glutamine-based Specific Activity ([1]; Mg assay) [%] | % Conversion ([1]; Mg assay) [%] | % Reduction in ADP-based Specific Activity ([1]; Mn assay) | % Reduction in Glutamine-based Specific Activity ([1]; Mn assay) | % Conversion ([1]; Mn assay) [%] | inhibition of the enzyme (in words) [2] | % Conversion ([2]; Mn assay) [%] | inhibition of the enzyme (in words) [3] | % Reduction in ADP-based Specific Activity ([3]; Mg assay) [%] | % Reduction in Glutamine-based Specific Activity ([3]; Mg assay) | % Conversion ([3]; Mg assay) [%] | % Reduction in ADP-based Specific Activity ([3]; Mn assay) | % Reduction in Glutamine-based Specific Activity ([3]; Mn assay) [%] | % Conversion ([3]; Mn assay) [%] | % Conversion ([2]; Mg assay) [%]
NCCc1ccc(S(=O)(=O)F)cc1 [AEBSF] | appeared to cause inhibition | −31.77 | −10.61 | 109 | +30.66% | +15.27% | 81 | appeared to cause inhibition | 85 | appeared to cause inhibition | −39.50 | −1.70% | 83 | −15.43% | −15.19 | 115 | 
O=S(=O)(F)Cc1ccccc1 [PMSF] | found to inhibit | −19.51 | −43.54 | 59 | −13.41% | −39.84% | 64 | found to inhibit | 67 | found to inhibit | −17.31 | +6.90% | 66 | +46.95% | −22.73 | 61 | 49
